# Earlier results in patent US20170020130A1, “METHOD OF PREPARATION AND COMPOSITION OF ANT[…]” (Eltron Research & Development, LLC, priority 2008, published 2017).
# Conditions: alkaline pH (7.5≦pH≦10.5), near the pKa
smiles,measurement,value
CC(=O)OO [peracetic acid],stability (decomposition with evolution of oxygen),least stable
